Assay results reported in the METLIN SMRT retention time set (Domingo-Almenara et al. 2019).

Experiment: gradient 5% acetonitrile 3 min, to 50% in 2 min, to 85% in 15 min, held 3 min, 100 µL/min
Conditions: column: Zorbax Extend-C18 2.1 x 50 mm; eluents: water / acetonitrile, 0.1% formic acid
Method in brief: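 A Zorbax Extend-C18 column (2.1 × 50 mm, 1.8 μm) run at 100 μL/min with water and acetonitrile, both containing 0.1% formic acid, separated mixtures of ~100 pure standards. The HPLC was coupled to a quadrupole time-of-flight mass spectrometer operated in positive and negative ionization mode, with dead and dwell volumes of 40 μL and 900 μL. Each retention time was taken from a computationally picked adduct peak that was then manually inspected.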

SMILES	RP-LC retention time
CCCN1C(=O)c2c(C(=O)NCCc3ccccc3)ncn2CC1(C)C(=O)NCCC(C)C (centres undefined)	891 s
Cc1ccc(CN2CCC(N3CC4(CCCCC4)C3c3ccncc3)CC2)o1 (centres undefined)	591 s
O=C(CSCc1ccccc1)NCCS(=O)(=O)N1CCN(c2ncccn2)CC1	746 s
CCOc1ccc(NC(=O)c2cc(=O)c3cc(Cl)ccc3o2)c2cccnc12	665 s
Cc1cc(C)cc(Oc2nccn3c(=O)n(CC(=O)NC(C)(C)C)nc23)c1	859 s
CN1CCN(C(=O)c2nn(-c3ccc(Cl)cc3)c3c(=O)n(C)cnc23)CC1	611 s
c1ccc(-c2nc(-c3cnccn3)no2)c(OC2CNC2)c1	583 s
O=C(CCNc1c(-c2cccc(F)c2)nc2cnccn12)NCc1ccccc1Cl	780 s
C=CCn1c(=O)c2sc(N(CC)CC)nc2n(CC(=O)Nc2c(C)cccc2C)c1=O	830 s
CC(C)N1C(=O)C(C)(C(=O)NCc2ccc3c(c2)OCO3)Oc2cccnc21 (centres undefined)	894 s
CCCN1C(=O)COc2ccc(-c3csc(NC(=O)C(C)C)n3)cc21	918 s
O=C(Cn1nc2nc(Nc3ccc(F)cc3)ccn2c1=O)NCc1ccc(F)cc1Cl	753 s
O=C(NCCC1CCN(C(=O)Nc2ccc(F)cc2)CC1)c1ccco1	718 s
CCc1ccccc1NC(=O)CN1C(=O)NC2(CCCCC2)C1=O	761 s
O=C(Cc1ccsc1)NCCn1c(=O)n(Cc2ccc(F)cc2)c2cccnc21	781 s
CCn1cc(CCNC(=O)c2ccccc2Cl)c2cccnc21	691 s
O=C(CCc1ccccc1)Nc1ccc2c(c1)N(C(=O)c1ccco1)CCC2	871 s
Nc1c(C(=O)NCc2ccc3c(c2)OCO3)nsc1C(=O)N1CCN(c2ncccn2)CC1	850 s
Cc1ccc(F)cc1NC(=O)c1csc(-c2cn(C)c3ncccc23)n1	1130 s
CC1CCN(C(=O)c2cc3c(s2)CCC(C(=O)N2CCCC2)C3)CC1 (centres undefined)	849 s
O=C(CSc1nnc(Cc2ccccc2)o1)Nc1nc(-c2ccccc2)cs1	936 s

SMILES	RP-LC retention time
CCC(C)Cn1c(CNC(=O)c2ccco2)nc2ccccc21 (centres undefined)	664 s
c1cc(-c2sc(-c3ccncc3)c(-c3ccncc3)c2-c2ccncc2)ccn1	575 s
O=C(NC1CCCCCC1)c1nc(-c2ccnc(N3CCCC3)c2)no1	709 s
O=C(N1CCC(Cc2ccc(COc3cccnc3)cc2)CC1)C1(c2ccccc2)CC1	891 s
O=C(NCCc1ccccc1)C(=O)NCCc1cccs1	832 s
O=C(Nc1cccc2ccc(-n3ccnc3)nc12)c1ccc2c(c1)OCO2	620 s
COC1CN(C2CCN(C(=O)c3sc(C)nc3C)CC2)C12CCOCC2 (centres undefined)	796 s
O=c1n(Cc2ccccc2Cl)nc2n1CCCCC2	768 s
Cc1cc(C(=O)NC(C)C)c2cc(Br)ccc2n1	702 s
COc1ccc(N2CC(c3nc(-c4ccccc4Cl)no3)CC2=O)cc1OC (centres undefined)	878 s
Cc1nn(-c2ccc(N3CCOCC3)nn2)c(C)c1CCC(=O)NCCc1ccco1	661 s
COc1ccc(NC(=O)C2CN(S(C)(=O)=O)CC23CCCCC3)c(OC)c1 (centres undefined)	860 s
CCC(C(=O)N1CCN(C(=O)c2ccco2)CC1)n1c2ccccc2c2cnn(C)c(=O)c21 (centres undefined)	801 s
O=C(Cn1ncc2c(N3CCN(c4ccccn4)CC3)ncnc21)NCc1ccc(F)c(Cl)c1	628 s
CC(=O)c1ccc(NC(=O)c2nc3nc(C)cc(C(F)F)n3n2)cc1	722 s
CCn1cc(CCNC(=O)Nc2c(C)cccc2C)c2cccnc21	705 s
O=C(O)c1ccc(N2CCCCC2)cc1O	828 s
CCOc1ccc(CCNC(=O)c2nc(N3CCCC3)c3ccccc3n2)cc1OCC	732 s
O=C(CN1CCN(Cc2ccccc2F)C1=O)NCc1cccc(Cl)c1	831 s
CC1=C(C(=O)N2CCOCC2)C(c2ccccc2Br)C2=C(CC(C)(C)CC2=O)N1 (centres undefined)	683 s
O=C(N[C@H]1C[C@@H]2C[C@H]1CN2C(=O)Cc1ccc(OC(F)(F)F)cc1)c1cccs1	832 s

Now from value to compound:

RP-LC retention time	SMILES
986 s	Cc1cc(F)ccc1NS(=O)(=O)c1cn(CC(C)C)c2ncccc12
670 s	CC1CCN(S(=O)(=O)c2ccc(-c3nnc(C(=O)NCCN(C)C)o3)cc2)CC1
762 s	COc1ccc(-c2nnc(COc3ccc(NS(C)(=O)=O)cc3)o2)cc1
921 s	CC1=NS(=O)(=O)N(C)C=C1C(=O)OCCOc1ccccc1
750 s	Clc1ccc(Cn2c(CN3CCCC3)nc3ccccc32)cc1
607 s	COc1ccc(NC(C)=O)cc1NS(=O)(=O)C1CC1
1250 s	CC(C)c1ccc(-c2nc(-c3ccc4c(c3)oc(=O)n4C)no2)cc1
769 s	CCOc1ccccc1C(=O)NC1CCN(c2cc(-c3cccs3)[nH]n2)C1 (centres undefined)
1110 s	Cc1ccccc1-c1nc(-c2ccc3c(c2)oc(=O)n3C)no1
694 s	Cc1oc(-c2ccc(C(=O)NCCN(C)C)cc2)nc1CN1CCc2ccccc21
825 s	Cc1cccc(C)c1NC(=O)Cn1nc2c(Oc3cccc(F)c3)nccn2c1=O
1060 s	CCOc1ccccc1NC(=O)C(=O)Nc1ccc([N+](=O)[O-])cc1
758 s	COc1ccccc1NC(=O)C1CCN(S(=O)(=O)c2cc(C(=O)N3CCCC3)n(C)c2)CC1
1100 s	COc1ccc(-c2cc(-c3ccccc3)c(-c3ccccc3)nn2)cc1
784 s	O=C(c1cccc(F)c1)N1CCN(S(=O)(=O)c2cc3c4c(c2)CCC(=O)N4CCC3)CC1
664 s	Cc1ccc2oc(N3CCCN(C(=O)c4ccc(-c5noc(C(C)C)n5)cc4)CC3)nc2n1
1090 s	COc1ccc2c(c1)CCc1sc(NC(=O)c3ccccc3F)nc1-2
1070 s	Cc1ccc(S(=O)(=O)N2CCc3c(c(-c4nnc(-c5ccccc5)o4)nn3C)C2)cc1Cl
976 s	Cc1cc(C(=O)Nc2nc(-c3ccc(F)cc3)c(C)s2)no1
810 s	COc1ccc(C)cc1NC(=O)N1CCC(OC2CCN(S(C)(=O)=O)CC2)CC1
853 s	O=C(Cc1ccc(Cl)cc1)NC1CCN(c2ccc(F)cc2)C1=O (centres undefined)
800 s	O=c1n(Cc2cccc(F)c2)nc2ccc(S(=O)(=O)N3CCOCC3)cn12
694 s	COc1ccccc1CNS(=O)(=O)c1cc(-c2[nH]ncc2C(=O)N2CCCC2)oc1C
856 s	Cc1ccc(S(=O)(=O)C2CS(=O)(=O)CC2S(=O)(=O)c2ccc(C)cc2)cc1 (centres undefined)

RP-LC retention time	SMILES
840 s	Cc1cccc(N2C(=O)CN(CCc3ccccc3F)[C@H]3CS(=O)(=O)C[C@H]32)c1
761 s	CN1c2cc(F)ccc2C(=O)NC12CCN(C(=O)NCCc1ccccc1)CC2
935 s	Cc1ccc(S(=O)(=O)CC(=O)Nc2nc(-c3ccc4c(c3)OCCO4)cs2)cc1
707 s	Cc1ccc2[nH]c(C(=O)NC3CC3)c(N3CCCC3=O)c2c1
652 s	Cc1cccc(NS(=O)(=O)c2cc3n(c2)CCCNC3=O)c1
582 s	COc1ccc(C2NCCc3c2[nH]c2ccccc32)cc1O (centres undefined)
874 s	COC(=O)c1cccc(COC(=O)C2=CN(C)S(=O)(=O)N=C2C)c1
915 s	Cc1cc(F)ccc1NC(=O)c1nnn(-c2ccc(F)cc2)c1-c1cccnc1
642 s	CNCc1ccc(-c2[nH]c3cc(F)cc4c3c2CCNC4=O)cc1
667 s	Cc1ccn2c(NC(=O)c3ccc([N+](=O)[O-])cc3)c(-c3ccccc3)nc2c1
730 s	O=C(NCc1ccc(Br)cc1)C1CCCN(c2ccnc(-c3ccc(F)cc3)n2)C1 (centres undefined)
676 s	CCc1noc(NC(C)=O)c1-c1ccc(OC)c(S(=O)(=O)N2CCOCC2)c1
661 s	COc1ccc(-c2cc3nn(CC(=O)Nc4ccccc4)c(=O)n3c(C)n2)cc1
725 s	CCOC(=O)C1CCN(C(c2ccc(C)cc2)c2c(O)cc(C)n(CC)c2=O)CC1 (centres undefined)
974 s	Cc1cccc(-c2noc(C3CCCN3C(=O)NCc3ccc(F)cc3)n2)c1 (centres undefined)
1200 s	COc1cccc(C2Cn3nnc(-c4nc(-c5ccc(SC)cc5)no4)c3CO2)c1 (centres undefined)
840 s	CCOC(=O)C1=C(c2ccc(OC)cc2)NC(=O)NC1c1ccc(OC)cc1 (centres undefined)
687 s	CC(C)NC(=O)c1cccc(Nc2c(-c3ccc(Cl)cc3)nc3cnccn23)c1
1150 s	CCc1nc(-n2cccc2)sc1C(=O)Nc1cccc(C)c1
797 s	CC(C)c1ccc(NC(=O)C2CCN(S(=O)(=O)c3cn(C)cn3)CC2)cc1
981 s	CCOC(=O)c1cc2ccsc2n1CC(=O)NCc1ccc(C)cc1
840 s	Cc1ccc(C)c(N2C(=O)CN(S(C)(=O)=O)CC2(C)C(=O)NCc2ccc(F)cc2)c1 (centres undefined)
916 s	O=C(NCCc1ccccc1)c1nnc(-c2ccc(S(=O)(=O)N3CCCC3)cc2)o1
